From publication PMC2121212 (The Journal of Experimental Medicine, 2006)
No end group written: not given here.

How the values were obtained:
I-A^d = biological target: T1, I-A^d (Mus musculus, UniProt P01921+P04228); format: binding, murine
T1 sequence (P04228 24-111 limits assumed): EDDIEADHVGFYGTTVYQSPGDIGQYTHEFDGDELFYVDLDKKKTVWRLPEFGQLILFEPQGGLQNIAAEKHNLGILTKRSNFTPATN
T1 sequence (P01921 28-122 limits assumed): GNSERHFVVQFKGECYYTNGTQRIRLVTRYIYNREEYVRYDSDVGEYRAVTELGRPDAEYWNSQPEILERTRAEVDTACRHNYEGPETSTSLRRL

[1] = test system: antigen-specific T cell hybridomas stimulated by APCs that do or do not express DM; format: cell-based, murine; conditions: for DM enhancement (fold DM effect): overnight, CTLL/MTT read-out
[2] = test system: additional HEL [11–25]–specific and LACK [156–173]–specific T cell hybridomas; assay: Presentation to additional independently derived T cell hybridomas; format: cell-based, murine; conditions: compared with original T cells
CD4 T cell response = conditions: in vivo response to variant when encoded in MalE (Fig. 4); ref [28]; cited from earlier work
[3] = test system: antigen-specific T cells stimulated by APCs that do or do not express DM; assay: Presentation from native protein versus MalE; format: cell-based, murine; conditions: native protein vs MalE (Fig. S1)

Substance: R14Q, N19A, G22S: triple substitution HEL [11–25] variant (AMKQHGLDAYRSYSL; also: fluorescein (FITC) label, position not given here)
- Increase in kinetic stability (I-A^d): threefold
- DM enhancement (fold DM effect) [1]: 29.7 ± 7.6 fold
- DM effect detected by additional T cell hybridomas [2]: confirmed this effect on the efficiency of presentation pattern with two additional, independently derived HEL [11–25]–specific hybridomas

Substance: V131A: HA [126–138] P4 substitution (V131A) (HNTNGATAACSHE)
- Immunogenicity of variant encoded in MalE (CD4 T cell response): cryptic

Substance: T128M: high stability HA variant T128M (HNMNGVTAACSHE)
- Immunogenicity of variant encoded in MalE (CD4 T cell response): immunogenic

Substance: HA [126–138]: derived from the influenza hemagglutinin molecule (HNTNGVTAACSHE) [reference compound]
- Presentation of synthetic peptide pulsed on DM^+ vs DM^− APCs ([1]; APCs pulsed with peptide instead of protein (Fig. 1 G, H; Fig. 2 B)): equivalent
- Effect of DM expression on presentation ([1]; epitope encoded within MalE, DM^+ vs DM^− APCs (Figs. 1 and 2, Table II)): modestly antagonized

Substance: T128Q: kinetic stability variant of HA [126–138] (HNQNGVTAACSHE)
- DM enhancement (fold DM effect) [1]: 3.5 ± 0.7 fold
- Immunogenicity of variant encoded in MalE (CD4 T cell response): immunogenic

Substance: HEL [11-25]: cryptic epitope derived from HEL, which has an unstable interaction with class II molecules (AMKRHGLDNYRGYSL; also: fluorescein (FITC) label, position not given here) [reference compound]
- Fold more protein required on APCs expressing DM (antagonism) [1]: ~10 fold
- Influence of protein context on DM-mediated presentation [3]: independent of the protein context from which the peptide epitope is derived

Substance: T128G: HA [126–138] P1 substitution (T128G) (HNGNGVTAACSHE)
- Immunogenicity of variant encoded in MalE (CD4 T cell response): cryptic

Substance: T128V, S136T: kinetic stability variant of HA [126–138] (HNVNGVTAACTHE)
- Immunogenicity of variant encoded in MalE (CD4 T cell response): cryptic
